# Source: patent US20160316750A1, “Compounds, Compositions and Methods for Attracting and/or Arresting Bed Bugs” (priority 2013, published 2016)
# What was measured:
# Cimex lectularius [1] = experiment: large Plexiglass arena bioassay with baited and control shelters; type: in vivo; conditions: adult males
# Excerpt: The large two-chamber Plexiglass arena (180 cm long×12 cm high×13 cm wide) was designed with a central divider (180 cm long×5.5 cm high) to accommodate two pieces of wood (162 cm long×3.8 cm wide×0.8 cm high), each piece for testing the response of a single bed bug to a pheromone-baited shelter or a control shelter (see insert in FIG. 1,b) which were randomly assigned to either end of the wood. […] For each replicate, a single bed bug was placed in the center of the wood piece just prior to the end of the 14-h photophase, and its position was scored the next morning after the onset of the photophase.
# Experiments 68-75 also investigated the effect of the volatile pheromone components (VPCs) (E)-2-hexenal, (E)-2-octenal, dimethyl disulfide, dimethyl trisulfide and 2-hexanone, and the effect of the less-volatile pheromone component histamine (H), on attraction and arrestment of bed bugs. Treatment stimuli consisted of filter paper (4×2.2 cm) impregnated with H (2,000 μg) and covered with a piece of corrugated cardboard shelter (3×2.2 cm), and of VPCs formulated at a high dose (500 μg; Experiments 68-74) or a medium dose (50 μg; Experiment 75) in mineral oil (0.5 ml) and pipetted into the inverted lid of a 20-ml scintillation vial resting on top of the shelter (FIG. 1). Control stimuli were of identical design but the filter paper contained no H, and the mineral oil contained no VPCs.
# Cimex lectularius [2] = experiment: three-dish, dual-choice olfactometer bioassay; type: in vivo
# Excerpt: Bioassays were run in dual-choice olfactometers and in large Plexiglass arenas (FIG. 1). Dual-choice olfactometers consisted of two lateral Pyrex® glass Petri dishes, connected to a central dish (all dishes 3×9 cm inner diameter) via a Pyrex® glass tube (2.5 cm long×2 cm inner diameter). The dishes in this olfactometer mimic the natural still-air shelters in which bed bugs spend the day. Prior to the start of bioassays, a disc of paper towelling (9 cm diameter) was placed into each dish and a strip of paper towelling (2.4×0.6 cm) was inserted into the connecting glass tubing to provide traction for walking bed bugs. In addition, a piece of filter paper (2×3 cm; Whatman) was placed into each lateral dish and covered with a piece of cardboard (2×2 cm) as a refuge for bioassay insects.
# Treatment and control stimuli were randomly assigned to each lateral dish. Olfactometers were enclosed in opaque plastic bins to prevent light from entering and affecting the insects' response. For each replicate, a single 3rd, 4th or 5th instar C. lectularius nymph was released into the central chamber of the olfactometer, which was then covered with a glass plate to prevent escape. The single bed bugs in each olfactometer were then allowed to explore all chambers. Each insect was released into an olfactometer at the end of the 14-h photophase allowing it to explore the chambers during 10 h of darkness, and to come to rest in one of the shelters during 10 h of light. After this 20-h period, the insect's position within the olfactometer was recorded. Any insects not found in a lateral chamber were recorded as non-responders. All experimental replicates were run at 24±2° C. and 30-60% RH. Olfactometers were washed with Sparkleen detergent (Fisher Scientific Co, Pittsburgh, Pa., USA), and were oven-dried (Precision, Winchester, Va., USA) between each bioassay.
# To determine whether a blend of the 15 bed bug feces volatiles that were identified in bed bug feces (see EXAMPLE 11) attracts bed bugs and thus contains one or more bed bug pheromone components, the synthetic blend (SB) was tested at a medium dose (50 μg; Experiment 45), a low dose (5 μg; Experiment 46), and a very low dose (0.5 μg; Experiment 47) for the response of bed bugs in three-dish, dual-choice olfactometers (see EXAMPLE 2, FIG. 1). At each dose tested, all components were formulated in equal amounts in mineral oil which was pipetted into the inverted lid of a 4-ml vial. The vial was then placed on top of the corrugated cardboard shelter (see FIG. 1) in the randomly assigned treatment dish of the olfactometer (see EXAMPLE 2). The control stimulus consisted of the same type of lid on the corrugated cardboard of the control dish of the olfactometer containing mineral oil without synthetic test chemicals.
# bed bugs = experiment: shelter traps in a heavily infested residential apartment (Room 106); type: in vivo, Cimex lectularius; conditions: 24-h periods; for Mean ± SE number insects in baited shelter: Exp. 76-79, paired shelters; for Mean (± SE) number insects in control shelter: Exp. 76-79, unbaited shelter paired with the baited shelter
# Excerpt: To determine whether bed bugs responded to synthetic pheromone lures not only in large arena laboratory bioassays but also in infested premises (residential apartments), we placed pheromone-baited shelter traps (see FIG. 1) in apartments with known or suspected bed bug infestations. […] Based on 24-hour trapping results in multiple apartments, we selected a single, heavily infested apartment (hereafter referred to as Room 106) for further testing of synthetic bed bug pheromone lures.
# Replicates (n=15-20) of each experiment consisted of paired shelters placed against a wall or furniture, with approximately 30-cm spacing between paired shelters and >1 m spacing between shelter pairs. For each shelter pair within each experiment, pheromone and control treatments were randomly assigned, and placement of replicates was alternated between the two experiments of Set 1 and Set 2. Because not more than 10 shelter pairs could be accommodated in Room 106 at any time, experimental data were collected over several consecutive 24-h periods. Every morning at 9:00, shelters were collected from Room 106 and immediately placed into separate labelled zipper lock bags which were then put on dry ice to kill the bed bugs that had entered a shelter. Bed bugs in each shelter were later counted in the laboratory under a microscope, noting their developmental stage (1st, 2nd, 3rd, 4th instar, adult), sex (male, female), and evidence (or not) for blood feeding prior to entry into a shelter Immediately following the removal of bed bug shelters from Room 106 each morning, new pre-prepared shelters were pheromone-baited (treatment) or not (control) and their position within shelter pairs randomly assigned (see above), again alternating placement of shelter pairs between Experiments 76 and 77 (Set 1) and between Experiments 78 and 79 (Set 2).
# [3] = baited shelter 1 vs unbaited shelter 2, VPCs 500 μg, histamine 2,000 μg
smiles,measurement,setting,value
"NCCc1c[nH]cn1 [H, histamine]",No. insects in shelter 2,"Cimex lectularius [1]; Exp. 72, H (2,000 μg) in shelter 2 vs VPC (500 μg) in shelter 1",14
same,No. insects in shelter 2,"Cimex lectularius [1]; Exp. 74, H (2,000 μg) in shelter 2 vs VPC (500 μg) + H in shelter 1",5
same,No. insects in shelter 2,"Cimex lectularius [1]; Exp. 75, H (2,000 μg) in shelter 2 vs VPC (50 μg) + H in shelter 1",0
same,No. insects in shelter 1,Cimex lectularius [1]; [3],12
same,No. insects not responding,Cimex lectularius [1]; [3],5
same,No. insects in shelter 2,"Cimex lectularius [1]; unbaited shelter 2, bait in shelter 1, VPCs 500 μg, histamine 2,000 μg",1
same,No. insects in shelter 2,"Cimex lectularius [1]; unbaited shelter 2, bait in shelter 1, VPCs 500 μg, histamine 2,000 μg, listed as histamine",one
same,No. insects not responding,"Cimex lectularius [2]; Exp. 23-37, nymphs, bait amounts in micrograms",3
same,No. insects in control chamber,"Cimex lectularius [2]; Exp. 23-37, nymphs, bait in the other chamber, amounts in micrograms",10
same,No. insects in bait chamber,"Cimex lectularius [2]; Exp. 23-37, nymphs, numbers in parentheses of the bait = amounts in micrograms",35
same,arrestment response by form of histamine (in words),"Cimex lectularius [2]; Experiments 26-28, dimethylaminoethanol 20 μg and histamine 20 μg as base, salt or base and salt",only as a base elicits the bed bugs' arrestment response
same,bioactivity alone (in words),"Cimex lectularius [2]; Experiments 36-37, alone at 200 μg, nymphs",bioactive on its own
same,Mean ± SE number insects in baited shelter,bed bugs,6.06 ± 1.28
same,Mean ± SE number insects in baited shelter,bed bugs; listed as histamine,6.06
same,Mean (± SE) number insects in control shelter,bed bugs,4.53 ± 1.8
same,Mean (± SE) number insects in control shelter,bed bugs; listed as histamine,4.53
